Assay [1] addresses GDP-bound KRAS protein (aa 1-169), containing both G12D and C118A amino acid substitutions (Homo sapiens, UniProt P01116, C118A/G12D). Description: KRAS G12D Coupled Nucleotide Exchange Assay. The class given is biochemical. As to the method:
KRAS G12D Coupled Nucleotide Exchange Assay
Following compound pre-incubation, purified SOS protein (aa 564-1049) and GTP (Roche 10106399001) were added to the assay wells and incubated for an additional 30 min. […] The assay plates were then read on a PerkinElmer EnVision Multilabel Reader, using AlphaScreen® technology, and data were analyzed using a 4-parameter logistic model to calculate IC50 values.

Assay [2] concerns the target His-tagged KRAS G12D protein (Homo sapiens, UniProt P01116, G12D). Description: KRAS G12D TR-FRET Assay. The class given is binding. The procedure, abridged:
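His-KRAS G12D (20 nM) was preincubated with titrated compound for 30 min at RT in HEPES pH 7.4 buffer with MgCl2, 10 μM GDP. Biotin-KRPep-2d (20 nM) was then added for 1 h, followed by Eu-anti-His/streptavidin-d2 for 1 h. The 665/615 nm TR-FRET ratio was fitted 4-parameter to give IC50.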
(In general: TR-FRET usually uses a lanthanide donor and a delayed reading to cut background.)

In assay [3] the test system is Phosphorylation of ERK1/2 in AsPC-1 cells. Kind of assay: Phospho-ERK1/2 MSD Assay. The class given is cell-based. To be noted: Homo sapiens, ASPC1, 2 h, read-out: 2 h p-ERK (AsPC-1 cells), IC50, AsPC-1 cells, 2 h compound treatment. The procedure, abridged: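 Phospho-ERK1/2 was quantified by MSD whole-cell lysate immunoassay in RIPA lysates made with protease/phosphatase inhibitors. A 4-parameter logistic model gave IC50.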

A word on the IC50: it is the concentration that inhibits the measured activity by half.

Sequence of GDP-bound KRAS protein (aa 1-169), containing both G12D and C118A amino acid substitutions (P01116 1-169 isoform P01116-2 G12D/C118A): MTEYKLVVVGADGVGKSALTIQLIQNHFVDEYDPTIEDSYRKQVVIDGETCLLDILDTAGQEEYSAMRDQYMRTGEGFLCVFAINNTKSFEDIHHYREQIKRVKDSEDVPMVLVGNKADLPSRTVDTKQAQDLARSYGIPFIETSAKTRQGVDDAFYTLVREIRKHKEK
Sequence of His-tagged KRAS G12D protein (P01116 1-188 isoform P01116-2 G12D): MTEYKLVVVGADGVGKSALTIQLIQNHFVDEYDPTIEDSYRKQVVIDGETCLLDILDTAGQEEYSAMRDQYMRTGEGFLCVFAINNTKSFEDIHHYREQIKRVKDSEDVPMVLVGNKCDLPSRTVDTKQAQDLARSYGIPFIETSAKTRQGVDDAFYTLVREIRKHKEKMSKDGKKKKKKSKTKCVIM

For `CCc1cccc2cc(O)cc(-c3c(F)cc4c(N5CCC[C@]6(CCO6)C5)nc(OC[C@@]56CCCN5C[C@H](F)C6)nc4c3F)c12` [Example 77, 4-(6,8-Difluoro-2-(((2R,7aS)-2-fluorotetrahydro-1H-pyrrolizin-7a(5H)-yl)methoxy)-4-((S)-1-oxa-6-azaspiro[3.5]nonan-6-yl)quinazolin-7-yl)-5-ethylnaphthalen-2-ol], the IC50 stood at 4 nM in assay [1], 6 nM in assay [2] and 29 nM in assay [3].

`Oc1cc(-c2c(F)cc3c(N4CCC[C@]5(CCO5)C4)nc(OC[C@@]45CCCN4C[C@H](F)C5)nc3c2F)c2c(Cl)c(F)ccc2c1` [Example 78, 5-Chloro-4-(6,8-difluoro-2-(((2R,7aS)-2-fluorotetrahydro-1H-pyrrolizin-7a(5H)-yl)methoxy)-4-((S)-1-oxa-6-azaspiro[3.5]nonan-6-yl)quinazolin-7-yl)-6-fluoronaphthalen-2-ol]: the IC50 in assay [1] stood at 3 nM; in assay [2], 5 nM; in assay [3], 16 nM.

On to `Oc1cc(-c2c(F)cc3c(N4CCC[C@]5(CCO5)C4)nc(OC[C@@]45CCCN4C[C@H](F)C5)nc3c2F)c2c(F)c(F)ccc2c1` [Example 79, 4-(6,8-Difluoro-2-(((2R,7aS)-2-fluorotetrahydro-1H-pyrrolizin-7a(5H)-yl)methoxy)-4-((S)-1-oxa-6-azaspiro[3.5]nonan-6-yl)quinazolin-7-yl)-5,6-difluoronaphthalen-2-ol], for which the IC50 in assay [1] turned out to be 5 nM; in assay [2], 9 nM; in assay [3] it was 33 nM.

For `O=C1NCC2(CCCN(c3nc(OC[C@@]45CCCN4C[C@H](F)C5)nc4c(F)c(-c5cc(O)cc(Cl)c5C5CC5)ccc34)C2)O1` (stereo partly drawn) [Example 83, 7-(7-(3-Chloro-2-cyclopropyl-5-hydroxyphenyl)-8-fluoro-2-(((2R,7a5)-2-fluorotetrahydro-1H-pyrrolizin-7a(5H)-yl)methoxy)quinazolin-4-yl)-1-oxa-3,7-diazaspiro[4.5]decan-2-one], the IC50 in assay [1] came to 5 nM; in assay [2], 10 nM; in assay [3], 58 nM.

`O=C1NC[C@]2(CCCN(c3nc(OC[C@@]45CCCN4C[C@H](F)C5)nc4c(F)c(-c5cc(O)cc(Cl)c5C5CC5)ccc34)C2)O1` [Example 84, (S)-7-(7-(3-Chloro-2-cyclopropyl-5-hydroxyphenyl)-8-fluoro-2-(((2R,7aS)-2-fluorotetrahydro-1H-pyrrolizin-7a(5H)-yl)methoxy)quinazolin-4-yl)-1-oxa-3,7-diazaspiro[4.5]decan-2-one]: the values for the IC50 in assay [1], in assay [2] and in assay [3] were 2 nM, 5 nM and 72 nM, respectively.

Regarding `CCc1c(F)ccc2cccc(-c3ccc4c(N5CCCC6(CNC(=O)O6)C5)nc(OC[C@@]56CCCN5C[C@H](F)C6)nc4c3F)c12` (stereo partly drawn) [Example 85, 7-(7-(8-Ethyl-7-fluoronaphthalen-1-yl)-8-fluoro-2-(((2R,7aS)-2-fluorotetrahydro-1H-pyrrolizin-7a(5H)-yl)methoxy)quinazolin-4-yl)-1-oxa-3,7-diazaspiro[4.5]decan-2-one], the values for the IC50 in assay [1], in assay [2] and in assay [3] were 7 nM, 7 nM and 85 nM, respectively.

As for `CCc1c(F)ccc2cc(O)cc(-c3ccc4c(N5CCC[C@]6(C5)C[C@@H](O)C6)nc(OC[C@@]56CCCN5C[C@H](F)C6)nc4c3F)c12` [Example 87, (2S,4s)-6-(7-(8-Ethyl-7-fluoro-3-hydroxynaphthalen-1-yl)-6,8-difluoro-2-(((2R,7a.S)-2-fluorotetrahydro-1H-pyrrolizin-7a(5H)-yl)methoxy)quinazolin-4-yl)-6-azaspiro[3.5]nonan-2-ol], the IC50 in assay [1] was found to be 3 nM; in assay [2] it was 5 nM; in assay [3] it was 55 nM.

On to `CCc1c(F)ccc2cc(O)cc(-c3c(F)cc4c(N5CCCC6(CCC(=O)O6)C5)nc(OC[C@@]56CCCN5C[C@H](F)C6)nc4c3F)c12` (stereo partly drawn) [Example 92, 7-(7-(8-Ethyl-7-fluoro-3-hydroxynaphthalen-1-yl)-6,8-difluoro-2-(((2R,7aS)-2-fluorotetrahydro-1H-pyrrolizin-7a(5H)-yl)methoxy)quinazolin-4-yl)-1-oxa-7-azaspiro[4.5]decan-2-one], for which the IC50 was 5 nM in assay [1], 7 nM in assay [2] and 28 nM in assay [3].

Consider `CCC1CCCc2cc(O)cc(-c3ccc4c(N5CCC[C@@](C)(O)C5)nc(OC[C@@]56CCCN5C[C@H](F)C6)nc4c3F)c21` (stereo partly drawn) [Example 95, (3R)-1-(7-(8-Ethyl-3-hydroxy-5,6,7,8-tetrahydronaphthalen-1-yl)-8-fluoro-2-(((2R,7aS)-2-fluorotetrahydro-1H-pyrrolizin-7a(5H)-yl)methoxy)quinazolin-4-yl)-3-methylpiperidin-3-ol], for which the IC50 in assay [1] came to 9 nM; in assay [2], 12 nM; in assay [3], 180 nM.

With `CC1CCCc2cc(O)cc(-c3ccc4c(N5CCC[C@@](C)(O)C5)nc(OC[C@@]56CCCN5C[C@H](F)C6)nc4c3F)c21` (stereo partly drawn) [Example 96, (3R)-1-(8-Fluoro-2-(((2R,7aS)-2-fluorotetrahydro-1H-pyrrolizin-7a(5H)-yl)methoxy)-7-(3-hydroxy-8-methyl-5,6,7,8-tetrahydronaphthalen-1-yl)quinazolin-4-yl)-3-methylpiperidin-3-ol], the IC50 is 6 nM in assay [1], 10 nM in assay [2] and 87 nM in assay [3].

In the case of `C/C=C\c1c(Cl)cc2[nH]ncc2c1-c1c(F)cc2c(N3CCOC[C@@](C)(O)C3)nc(OC[C@@]34CCCN3C[C@H](F)C4)nc2c1F` [Example 103, (6S)-4-(7-(6-Chloro-5-((Z)-prop-1-en-1-yl)-1H-indazol-4-yl)-6,8-difluoro-2-(((2R,7aS)-2-fluorotetrahydro-1H-pyrrolizin-7a(5H)-yl)methoxy)quinazolin-4-yl)-6-methyl-1,4-oxazepan-6-ol], the figures for the IC50 in assay [1], in assay [2] and in assay [3] were 5 nM, 7 nM and 27 nM, respectively.

For `C/C=C\c1c(Cl)cc2[nH]ncc2c1-c1ccc2c(N3CCOC[C@@](C)(O)C3)nc(OC[C@@]34CCCN3C[C@H](F)C4)nc2c1F` [Example 105, (6S)-4-(7-(6-Chloro-5-((Z)-prop-1-en-1-yl)-1H-indazol-4-yl)-8-fluoro-2-(((2R,7aS)-2-fluorotetrahydro-1H-pyrrolizin-7a(5H)-yl)methoxy)quinazolin-4-yl)-6-methyl-1,4-oxazepan-6-ol], the IC50 in assay [1] amounted to 3 nM; in assay [2], 3 nM; in assay [3], 32 nM.

Regarding `C/C=C\c1c(C)cc2[nH]ncc2c1-c1ccc2c(N3CCOC[C@@](C)(O)C3)nc(OC[C@@]34CCCN3C[C@H](F)C4)nc2c1F` [Example 106, (6S)-4-(8-Fluoro-2-(((2R,7aS)-2-fluorotetrahydro-1H-pyrrolizin-7a(5H)-yl)methoxy)-7-(6-methyl-5-((Z)-prop-1-en-1-yl)-1H-indazol-4-yl)quinazolin-4-yl)-6-methyl-1,4-oxazepan-6-ol], the results for the IC50 in assay [1], in assay [2] and in assay [3] were 4 nM, 7 nM and 87 nM, respectively.

Turning to `C/C=C\c1c(Cl)cc2[nH]ncc2c1-c1ccc2c(N3CCC[C@@](C)(O)C3)nc(OC[C@@]34CCCN3C[C@H](F)C4)nc2c1F` [Example 108, (3R)-1-(7-(6-Chloro-5-((Z)-prop-1-en-1-yl)-1H-indazol-4-yl)-8-fluoro-2-(((2R,7aS)-2-fluorotetrahydro-1H-pyrrolizin-7a(5H)-yl)methoxy)quinazolin-4-yl)-3-methylpiperidin-3-ol], the figures for the IC50 in assay [1], in assay [2] and in assay [3] were 3 nM, 4 nM and 115 nM, respectively.

`C/C=C\c1c(Cl)cc2[nH]ncc2c1-c1ccc2c(N3CCC[C@@](C)(O)C3)nc(OCC3(CN(C)C)CC3)nc2c1F` [Example 115, (3R)-1-(7-(6-Chloro-5-((Z)-prop-1-en-1-yl)-1H-indazol-4-yl)-2-((1-((dimethylamino)methyl)cyclopropyl)methoxy)-8-fluoroquinazolin-4-yl)-3-methylpiperidin-3-ol]: the IC50 in assay [1] was determined as 9 nM; in assay [2], 8 nM; in assay [3], 247 nM.

As for `C/C=C\c1c(Cl)cc2[nH]ncc2c1-c1ccc2c(N3CCC[C@]4(CCO4)C3)nc(OC[C@@]34CCCN3C[C@H](F)C4)nc2c1F` [Example 116, (4S)-6-(7-(6-Chloro-5-((Z)-prop-1-en-1-yl)-1H-indazol-4-yl)-8-fluoro-2-(((2R,7aS)-2-fluorotetrahydro-1H-pyrrolizin-7a(5H)-yl)methoxy)quinazolin-4-yl)-1-oxa-6-azaspiro[3.5]nonane], the half-inhibitory concentration (IC50) in assay [1] came out at 2 nM; in assay [2], 3 nM; in assay [3] it was 59 nM.

Turning to `C/C=C\c1c(Cl)cc2[nH]ncc2c1-c1ccc2c(N3CCCC4(CNC(=O)O4)C3)nc(OC[C@@]34CCCN3C[C@H](F)C4)nc2c1F` (stereo partly drawn) [Example 117, 7-(7-(6-Chloro-5-((Z)-prop-1-en-1-yl)-1H-indazol-4-yl)-8-fluoro-2-(((2R,7aS)-2-fluorotetrahydro-1H-pyrrolizin-7a(5H)-yl)methoxy)quinazolin-4-yl)-1-oxa-3,7-diazaspiro[4.5]decan-2-one], the 50% inhibitory concentration (IC50) is 2 nM in assay [1], 3 nM in assay [2] and 74 nM in assay [3].

Source of the values: patent US20250179077A1, “QUINAZOLINE COMPOUNDS AND USES THEREOF AS INHIBITORS OF MUTANT KRAS PROTEINS” (AMGEN INC., priority 2022, published 2025).
